Results on 88 molecules are retold here after PubChem BioAssay AID1259427 (Fisher Drug Discovery Resource Center, 2018).

The structures appear in SMILES notation. Activity calls are given as the source filed them.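 Rule for the calls: active = EC50 at or below a set limit, with no effect in the paired counter-screen assay; inactive = the rest.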

The assay deals with Aedes aegypti neuropeptide Y-like receptor 7 (NPYLR7). Briefly: NPYLR7 activation potency in cells – cell-based, Aedes aegypti, hit validation, mosquito biting behavior, confirmation (AID 1259427).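 Note: potency of agonists that activate the receptor and raise the calcium signal.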 To be noted: HEK293T NPYLR7/Galpha15/GCaMP6s, calcium fluorescence.
On to `N#CC1C(=N)Oc2cc(N)ccc2C1c1c(Cl)cccc1Cl` (stereo not drawn), for which the EC50 (in general, the midpoint of the concentration-response curve) was > 20 µM (inactive). `COc1ccccc1OCCCOc1ccc(Br)cc1Cl`: the EC50 is > 20 µM (inactive).

For `CCN1/C(=C/C2=CC(=O)CC(C)(C)C2)Sc2ccccc21`, the EC50 entry is “inactive”. The figure for `COCCCNCc1c(-c2ccc(F)cc2)noc1N1CCOCC1` is > 20 µM (inactive). Take `O=C1SC(Nc2ccc(Br)cc2)C(=O)N1c1ccccc1` (stereo not drawn): the EC50 is > 20 µM (inactive). The result for `CCN(CC)c1ccc(/C=C2/SC(=S)N(CC(=O)O)C2=O)cc1` reads “inactive”; that for `CC(=O)OC(C)C[N+](C)(C)C` (stereo not drawn), > 20 µM (inactive).

Consider `Cc1cc(O)c(CN2CCCCC2)c2c1C(=O)/C(=C/c1cc3ccccc3o1)O2`, for which the EC50 is > 20 µM (inactive). With `CCCc1nn2c(N)c(C=C3C=C(Cl)C(=O)C(Cl)=C3)c(=O)nc2s1`, the EC50 was > 20 µM (inactive). `N#CC1C(=N)Oc2cc(O)ccc2C1c1ccccc1I` (stereo not drawn): the EC50 result is “inactive”. For the molecule `Nc1c(S(=O)(=O)O)cc2c3c(cccc13)C(=O)N(CCO)C2=O`, the EC50 result is “inactive”.

On to `COC(=O)C1CCN(S(=O)(=O)c2c(F)cc(F)cc2Br)CC1`, for which the EC50 was > 20 µM (inactive).

As for `COc1ccc(Cl)cc1NC(=O)/C(C#N)=C/c1coc2ccc(C)cc2c1=O`, the EC50 is > 20 µM (inactive). The figure for `C=CCN1C(=O)C(Cc2ccc(OC)cc2)S/C1=N/N=C\c1cccs1` (stereo not drawn) is > 20 µM (inactive); for `COC(=O)c1cnc(/C=C/c2cc(C)c(O)c(C)c2)s1` it is > 20 µM (inactive). Turning to `CC(C)CN1C(=O)C(=Cc2c(N3CCN(CCO)CC3)nc3ccccn3c2=O)SC1=S`, the EC50 was > 20 µM (inactive). As for `CCCCCn1c(=O)c2c(nc3n2CCN3c2cc(C)cc(C)c2)n(C)c1=O`, the EC50 was > 20 µM (inactive). As for `CNC[C@H](O)c1ccc(O)c(O)c1`, the EC50 entry is “inactive”. As for `Clc1cccc2ccc(CN3CCn4cncc4C3)nc12`, the EC50 is > 20 µM (inactive). The figure for `COc1ccc(OC)c(CCNc2nc3cnc(-c4ccc(Cl)cc4)cc3n2C)c1` is 19.5 µM; for `Cc1ccc(Nc2nc(Nc3cccc(F)c3)nc3nccnc23)c(C)c1` it is > 20 µM (inactive). As for `CCN1C(=Cc2ccc3cc(C)ccc3[n+]2CC)Sc2ccccc21`, the EC50 result is “inactive”. With `O=C1C(=Cc2ccccc2O)NC(=S)N1Cc1ccco1`, the EC50 entry was “inactive”.

For `O=C1c2cccc3c(NCCO)ccc(c23)C(=O)N1CCO`, the EC50 is < 0.039 µM (inactive). On to `FC(F)(F)c1ccc(-c2nc3ccc(Cl)cn3c2NCc2ccccc2)cc1`, for which the EC50 is > 20 µM (inactive). On to `C[n+]1c2cc(N)ccc2cc2ccc(N)cc21`, for which the EC50 is < 0.039 µM (inactive). For the molecule `CCN1CCN(C(=O)c2ccc(Cn3ccsc3=NC(=O)c3ccc(OC)c(OC)c3)o2)CC1`, the EC50 is 14.3 µM. In the case of `COc1cc(C(=O)N2CCOC(c3ccccc3)C2)cc(OC)c1C` (stereo not drawn), the EC50 is > 20 µM (inactive). As for `O=C(O)c1[nH]ncc1CN1CCc2onc(-c3ccc(C(F)(F)F)cc3)c2C1`, the EC50 was > 20 µM (inactive).

`COc1ccc(N2CCN(c3cc(C(F)(F)F)nc(SCc4cccc(C(=O)NCc5ccccn5)c4)n3)CC2)cc1`: the EC50 was > 20 µM (inactive). The result for `Cc1cc2c(c(-c3ccc4c(cnn4C)c3)c1)OC(CN)C2` (stereo not drawn) reads > 20 µM (inactive); that for `CCN1CCc2c(sc(NC(=O)C3=COCCO3)c2-c2nc3ccccc3s2)C1`, “inactive”. As to `COc1ccc(C(=O)C=Cc2cc(OC)c(O)c(OC)c2)cc1F`, the EC50 is > 20 µM (inactive). Consider `COCCN=Cc1cc(I)cc(I)c1O`, for which the EC50 is > 20 µM (inactive). `O=C1c2cccc3c(NCC(O)CCl)ccc(c23)C(=O)N1c1ccccc1` (stereo not drawn): the EC50 was < 0.039 µM (inactive).

With `CCN(CC)C1=CC2=CC(=C(C#N)C#N)CCC2CC1` (stereo not drawn), the EC50 was < 0.039 µM (inactive).

Take `Cn1c(/C(C#N)=C/c2ccc(N3CCOCC3)o2)nc2ccccc21`: the EC50 is 14.9 µM. As to `O[C@@H]1CN(Cc2ccncc2Cl)CC[C@H]1c1ccc2c(c1)OCO2`, the EC50 was > 20 µM (inactive).

For the molecule `CCOc1cc(/C=C2\SC(=S)N(NC(=O)c3ccccc3O)C2=O)ccc1O`, the EC50 was > 20 µM (inactive). With `Cc1cccc(C2=N/C(=C\c3cc4cc5c6c(c4oc3=O)CCCN6CCC5)C(=O)O2)c1`, the EC50 entry is “inactive”. The figure for `C[C@@H](NC(=O)CN1Cc2ccc(N3CCOCC3)nc2C1=O)c1ccccc1` is > 20 µM (inactive); for `CCCC[n+]1c(C)cc(C=C2Sc3ccccc3N2C)cc1C` it is > 20 µM (inactive). The result for `N#C/C(=C\c1ccc(O)c(O)c1)C(=O)NCc1ccccc1` reads > 20 µM (inactive); that for `Cc1ccc(CNC(=O)NC(c2ccc3c(c2)OCCCO3)C(C)C)cc1F` (stereo not drawn), > 20 µM (inactive). As for `CNC(=O)NC(=O)CCN1CC(c2ccccc2Cl)c2c([nH]c3ccccc23)C1C` (stereo not drawn), the EC50 was > 20 µM (inactive). In the case of `COc1cccc(CNC2CC2)c1OCc1nc(CO)cs1`, the EC50 was > 20 µM (inactive). The result for `CC1=CC(C)C(C(=O)O)C(C(=O)O)C1` (stereo not drawn) reads > 20 µM (inactive).

For `CCOC(=O)N1CCN(c2ccc(/C=C(\C#N)c3nc4ccccc4n3C)o2)CC1`, the EC50 entry was “inactive”. As for `Nc1nc(Cl)nc2c1ncn2[C@@H]1O[C@H](CO)[C@@H](O)[C@H]1O`, the EC50 entry was “inactive”. Take `CCN1CCN(C2=CC3=CC(=C(C#N)C#N)CCC3CC2)CC1` (stereo not drawn): the EC50 is < 0.039 µM (inactive). The result for `Cc1ccc(C(=O)C=Cc2ccc(N(C)C)cc2)o1` reads < 0.039 µM (inactive).

Regarding `COc1ccc(CC2c3cc(OC)c(OC)cc3CC[N+]2(C)CCC(=O)OCCCCCOC(=O)CC[N+]2(C)CCc3cc(OC)c(OC)cc3C2Cc2ccc(OC)c(OC)c2)cc1OC` (stereo not drawn), the EC50 was 3.55 µM. Take `NCCNc1ccc2c3c(cccc13)C(=O)N(c1ccc(Cl)cc1)C2=O`: the EC50 result was “inactive”.

As to `Cc1ccc2c(c1)CCCN2CC(=O)N(CCC(N)=O)c1ccccc1`, the EC50 was > 20 µM (inactive). On to `COc1ccccc1Oc1nc2ccccn2c(=O)c1/C=C(\C#N)c1nc2ccccc2s1`, for which the EC50 is > 20 µM (inactive). Take `CN1C(=S)N(CCCN2CCOCC2)C(=O)/C1=C/c1ccc(N(C)C)cc1`: the EC50 is > 20 µM (inactive).

`O=[N+]([O-])c1cc(S(=O)(=O)Nc2cc(Cl)ccc2F)ccc1F`: the EC50 was > 20 µM (inactive). As for `NC(=NCCCCCCN=C(N)N=C(N)Nc1ccc(Cl)cc1)N=C(N)Nc1ccc(Cl)cc1`, the EC50 was 2.66 µM. As to `Oc1ccc(-c2onc3ccc(Cl)cc23)cc1`, the EC50 was > 20 µM (inactive).

On to `CCOC(=O)c1cc(O)c(C(=O)OCC)s1`, for which the EC50 was > 20 µM (inactive). The result for `COc1cc(/C=C2\SC(=S)N(c3cccc(C(=O)O)c3)C2=O)ccc1O` reads > 20 µM (inactive); that for `CCOC(=O)N1CCC(NC(=O)c2sc3nc4c(c(C(F)(F)F)c3c2N)CC(C)CC4)CC1` (stereo not drawn), > 20 µM (inactive); that for `COC(=O)c1cc(N)c(/C=C/c2cccs2)s1`, “inactive”. With `COc1ccc(-c2cccc(-c3ccc(NC(=O)c4oc5ccccc5c4C)cc3)n2)cc1`, the EC50 was > 20 µM (inactive).

With `CCN1CCc2c(sc(NC(=O)COc3ccccc3)c2-c2nc3ccccc3s2)C1`, the EC50 was > 20 µM (inactive).

Turning to `O=C1OC(c2ccc(Cl)c([N+](=O)[O-])c2)=N/C1=C\c1cc2cc3c4c(c2oc1=O)CCCN4CCC3`, the EC50 is < 0.039 µM (inactive).

As for `O=C1NC(c2ccc3c(c2)OCO3)C(C(=O)c2ccccc2)C(O)(C(F)(F)F)N1` (stereo not drawn), the EC50 is > 20 µM (inactive).

Turning to `O=C(O)c1csc(CSc2nnc(Cc3ccccc3)n2-c2cccc(C(F)(F)F)c2)n1`, the EC50 is > 20 µM (inactive).

On to `CCOC(=O)C1CCCN(c2nc3nonc3nc2N2CCSCC2)C1` (stereo not drawn), for which the EC50 is > 20 µM (inactive). As for `COc1ccc(/C=C2\Oc3c(ccc4c3CN(Cc3ccncc3)CO4)C2=O)cc1`, the EC50 entry was “inactive”.

Turning to `CC(C(=O)O)N1C(=O)/C(=C\c2ccc(O)cc2)SC1=S` (stereo not drawn), the EC50 was > 20 µM (inactive). The figure for `COc1cc(OC)c(C2=NOC3(CC(=O)N(c4cccc(Cl)c4)C3=O)C2)cc1OC` (stereo not drawn) is > 20 µM (inactive).

As for `O=C(CN1C(=O)SC(=Cc2ccc(N3CCCCCC3)o2)C1=O)N1CCCCCC1`, the EC50 is > 20 µM (inactive). Take `Cc1ccc2nc(Cn3cnc4c(Cl)cc(Cl)cc4c3=O)cc(=O)n2c1`: the EC50 was > 20 µM (inactive). Consider `Cc1c(NC(=O)COC(=O)C(C#N)=Cc2ccc(N(C)C)cc2)c(=O)n(-c2ccccc2)n1C`, for which the EC50 was > 20 µM (inactive). The result for `CC1CC2(C)Oc3ccccc3C3OCC1(CO)C(C)C32` (stereo not drawn) reads > 20 µM (inactive); that for `Cc1nc(Sc2nnc3ccccn23)c2c3c(sc2n1)CCCC3`, > 20 µM (inactive). With `N#CC(C#N)=C1C=C2C=C(N3CCCC3)CCC2CC1` (stereo not drawn), the EC50 was < 0.039 µM (inactive). Turning to `CC1C(=O)N(c2cccc(F)c2)CCN1C(=O)C1CC1` (stereo not drawn), the EC50 is > 20 µM (inactive).

On to `COc1ccc(-n2ccnc2-c2nc(-c3cccs3)oc2C)cn1`, for which the EC50 is > 20 µM (inactive). Turning to `O=C(N=Nc1c(O)[nH]c2ccc(Br)cc12)c1ccccc1Cl`, the EC50 is > 20 µM (inactive). The figure for `Cc1oc(-c2cccc(NC(=O)CC(C)C)c2)nc1CNC(=O)Cc1cc(F)cc(F)c1` is > 20 µM (inactive); for `COc1ccccc1N=c1oc2cc(O)ccc2cc1-c1nc2ccccc2[nH]1` it is “inactive”. The entry for `COc1cc(C=C2SC(=S)NC2=O)cc(Br)c1O` is “inactive”; for `CCc1nc(N=C(N)N)nc2cc(C)ccc12` it is 7.66 µM; for `Cc1cc(O)c(CN2CCN(C)CC2)c2c1C(=O)/C(=C/c1cccs1)O2` it is > 20 µM (inactive). Regarding `N#Cc1cc(C(=O)c2cc(Cl)cc(Cl)c2O)cn(-c2nccs2)c1=O`, the EC50 is 14.4 µM.

As for `O=C(CSc1cn(CC(=O)N2CCCCCC2)c2ccccc12)NC1CCCC1`, the EC50 is > 20 µM (inactive).
